# Measured values reported in patent US5183821A, “Method for treating leukemias using N-(2-dimethylaminoethyl)-3-amino-1,8-naphthalimide for treating leukemias and solid tumors” (priority 1991, dated 1993).
# “Also recorded” adds a separate entry of the source.
# Legend:
# Colon 38 [1] = assay: Experiment 14: Colon 38 s.c., saline with Tween-80, female; format: in vivo, Mouse B6 D2 F1 (BDF1)
# Source text: Host: Mouse B6 D2 F1 (BDF1)
# (§1) Inoculum Site: Subcutaneous
# Vehicle: Saline with Tween-80
# Treatment schedule (relative to tumor inoculation day): Days 2 and 9
# Day of evaluation (relative to tumor inoculation day): 20
# Parameter: Median tumor weight (MTW) estimated from tumor diameter
# NCI minimal activity criteria: Percent T/C≤42
# (§2) Percent T/C: Ratio of test (T) evaluation to control (C) evaluation expressed as a percentage
# Colon 38 [2] = assay: NCI screen, Colon 38, subcutaneous (summary); format: in vivo, Mouse; conditions: for Antitumor activity in words: colon 38
# Source text: The activity of the compound has been evaluated by experiments carried out under the auspices of the Division of Cancer Treatment, National Cancer Institute, employing techniques considered to be reliable indicators of chemotherapeutic utility in the treatment of forms of cancer in human patients. The details of the methodology employed in the reported experiments may be determined with reference to established NCI screening methods.
# In the experiments conducted by the NCI, evaluation of activity is made on the basis of appropriate parameters, such as median survival time (MST) or change in average tumor diameter (CATD)in ocular micrometer units (OMU).
# [3] = Five daily dose (X5) mouse range-finding and lethality study; format: in vivo, CD2 F1 mice; conditions: mouse, in vivo, iv
# Method: (§3) A preclinical toxicology study of benzisoquinolinedione (NSC-308847) was done at Springborn Institute for Bioresearch, Inc. using CD2 F1 mice, Fischer 344 rats and beagle dogs. Animals were injected intravenously on a single dose (X1) or five daily dose (X5) regimen. Bulk drug was titrated with 0.5N HCl to form a salt solution of benzisoquinolinedione at a pH of 5.0-6.5. Sterile 0.9% saline was used for diluting the dosing solutions and was used for the vehicle control animals.
# (§4) The deaths generally were preceded by rough hair coat, decreased activity, hunched posture and dehydration. […] Males and females were similarily affected on both schedules.
# (§5) Defined Doses for the Five Daily Dose Mouse Lethality
# CD2 F1 mice = assay: as above; format: in vivo
# Method: as §3, §4, §5
# physchem = format: physicochemical
# Method: While the compound was generally tested as a suspension in Tween-80, in one L1210 experiment it was tested as a solution in 0.1 N HCL diluted with saline. The level of activity (ILS=117%) was maintained. The solubilities of the compound in 0.01 N and 0.1 HCl are approximately 3 and 30 mg/ml, respectively.
# Formulation: 100 mg drug and 1 N HCl lyophilized yield the salt. The lyophilized cake dissolves in 2 ml sterile water to yield a 50 mg/ml red solution at pH 5.0-7.0.
# leukemia P388 = assay: NCI studies against leukemia P388 (Appendix 1, MDA and T/C); format: in vivo, murine
# Source text: On the other hand, murine transplantable leukemias are a good predictor of anti-leukemia activity in human beings (Kenis "Dose schedules and mode of administration of chemotherapeutic agents in man". Recent Results Cancer Res. 21, 54-61 (1969). Only those tests which use the survival times as an activity parameter are valid as predictors of antileukemia activity in human beings (for instance, leukemia p388 y L-1210), whilst "in vitro" tests (HeLa cells and other) are inappropriate (Llombart-Rodriguez, 1983). NCI data generated in the last years confirm the value of above assertions to compounds of general formula [drawing 1] as described in U.S. Pat. No. 4,204,063.
# Experimental results from NCI studies against leukemia P388 are shown in an appendix (Appendix 1). In order to simplify the presentation of results we have extracted from these the minor active dose (MDA) against leukemia P388--for each compound. MDA is defined as the minor dose of the drug that reaches the minimal activity criteria of the NCI. For leukemia P388 this criteria on the basis of survival time is a minimal increase in survival of treated animals over a control resulting in a T/C≥120. In the following table the MDA for 14 examples are presented. In cases where none of the tested doses reached the MDA, the MDA is indicated as "NONE". The column "cytotoxic activity" has been extracted from U.S. Pat. No. 4,204,063. Data are presented in order of the highest to lowest cytotoxic activity.
# L-1210 Lymphoid leukemia [4] = assay: Experiment 7: L-1210 i.p., 10^5 cells, acid diluted with saline, male; format: in vivo, Mouse CD2 F1 (CDF1)
# Source text: Host: Mouse CD2 F1 (CDF1)
# (§6) Tumor: L-1210 Lymphoid leukemia
# Inoculum Site: Intraperitoneal
# (§7) Vehicle: Acid diluted with saline
# Treatment schedule (relative to tumor inoculation day): daily on days 1-9
# (§8) Day of evaluation (relative to tumor inoculation day): 30
# (§9) Parameter: Median survival time (MST) in days
# (§10) NCI minimal activity criteria: Percent T/C≥125
# as §2
# L-1210 Lymphoid leukemia [5] = assay: Experiment 8: L-1210 s.c., 10^6 cells, acid diluted with saline, female; format: in vivo, Mouse CD2 F (CDF1)
# Source text: as §6, §1, §7
# Treatment schedule (relative to tumor inoculation day) daily on days 1-9
# as §8, §9, §10, §2
# [6] = X5, listed as benzisoquinolinedione
smiles,measurement,setting,value
"CN(C)CCN1C(=O)c2cccc3cc(N)cc(c23)C1=O [Example 9, 1H-Benz[de]isoquinoline-1,3(2H)-dione, 5-amino-2-[2-(dimethylamino)ethyl]]",Median tumor weight (MTW),Colon 38 [1]; 2.00 mg/kg i.p.,2141
same,Percent T/C,Colon 38 [1]; 2.00 mg/kg i.p.,111%
same,Median tumor weight (MTW),Colon 38 [1]; 4.00 mg/kg i.p.,1872
same,Percent T/C,Colon 38 [1]; 4.00 mg/kg i.p.,97%
same,Median tumor weight (MTW),Colon 38 [1]; 8.00 mg/kg i.p.,1687
same,Percent T/C,Colon 38 [1]; 8.00 mg/kg i.p.,87%
same,Median tumor weight (MTW),Colon 38 [1]; 16.00 mg/kg i.p.,2748
same,Percent T/C,Colon 38 [1]; 16.00 mg/kg i.p.,142%
same,Median tumor weight (MTW),Colon 38 [1]; 32.00 mg/kg i.p.,1013
same,Percent T/C,Colon 38 [1]; 32.00 mg/kg i.p.,52%
same,Median tumor weight (MTW),Colon 38 [1]; 64.00 mg/kg i.p.,1132
same,Percent T/C,Colon 38 [1]; 64.00 mg/kg i.p.,58%
same,"T/C, growth of s.c. implanted colon 38 tumor",Colon 38 [2]; 64 mg/kg i.p.,17%
same,inhibition at 64 mg/kg,"Colon 38 [2]; Mus musculus, 64 mg/kg i.p., read-out: inhibition of growth of s.c. implanted colon 38 tumor",83%
same,Antitumor activity in words,Colon 38 [2]; listed as BIDA,not active
same,Antitumor activity in words,Colon 38 [2]; listed as the compound,at least a reproducible minimal activity; also recorded: active
same,Table II evaluation,"Colon 38 [2]; median tumor weight, 25 tests, full wrapped cell: Reproducible minimal activity",Reproducible minimal
same,LD50,[3]; combined sexes,28.4 mg/kg
same,LD50,[3]; male,28.8 mg/kg
same,"body weight, mice",CD2 F1 mice; X5,Dose-related weight loss was mild to severe initially
same,"time of mortality, mice",CD2 F1 mice; [6],between days 1 and 10; also recorded: between days 6 and 10
same,"toxic signs, mice",CD2 F1 mice; [6],"labored breathing, exophthalmus, hyperextension of limbs, loss of locomotor ability, struggling, rough hair coat, huched posture, dehydration, increased irritability, decreased activity, swollen and necrotic tails, squinted eyes, prostration and moribundity; also recorded: ataxia and swollen faces with closed eyes and ocular discharge; also recorded: tail lesions which persisted to termination on day 33"
same,LD10,CD2 F1 mice; combined sexes,24.9 mg/kg/day
same,"LD10, second dose column",CD2 F1 mice; combined sexes,74.7
same,LD90,CD2 F1 mice; combined sexes,32.5 mg/kg/day
same,"LD90, second dose column",CD2 F1 mice; combined sexes,97.5
same,Slope (lethality),CD2 F1 mice; combined sexes,22.3
same,LD10,CD2 F1 mice; male,24.3 mg/kg/day
same,"LD10, second dose column",CD2 F1 mice; male,72.9
same,LD90,CD2 F1 mice; male,34.2 mg/kg/day
same,"LD90, second dose column",CD2 F1 mice; male,102.6
same,Slope (lethality),CD2 F1 mice; male,17.2
same,solubility,physchem; 0.01 n hcl,~3 mg/mL
same,solubility,physchem; 0.1 hcl,~30 mg/mL
same,pH of reconstituted solution,physchem; lyophilized cake in 2 ml sterile water,5.0-7.0
same,response vs control in vivo at 2 mg/kg,"leukemia P388; Mus musculus, P388, read-out: T/C %, dose 2,00 mg/kg",137%
same,response vs control in vivo at 4 mg/kg,"leukemia P388; Mus musculus, P388, read-out: T/C %, dose 4,00 mg/kg",142%
same,response vs control in vivo at 32 mg/kg,"leukemia P388; Mus musculus, P388, read-out: T/C %, dose 32,00 mg/kg",< 100%
same,response vs control in vivo at 65 mg/kg,"leukemia P388; Mus musculus, P388, read-out: T/C %, dose 65,00 mg/kg",< 100%
same,minimal effective dose,"leukemia P388; Mus musculus, P388, minor active dose reaching T/C≥120",2 mg/kg
same,STATUS (activity against leukemia P388),leukemia P388; at the dose of the same line of the appendix table,T/C > 120 active
same,Median survival time (MST),L-1210 Lymphoid leukemia [4]; 1.00 mg/kg i.p.,10.4 days
same,Percent T/C,L-1210 Lymphoid leukemia [4]; 1.00 mg/kg i.p.,99%
same,Median survival time (MST),L-1210 Lymphoid leukemia [4]; 2.00 mg/kg i.p.,10.2 days
same,Percent T/C,L-1210 Lymphoid leukemia [4]; 2.00 mg/kg i.p.,97%
same,Median survival time (MST),L-1210 Lymphoid leukemia [4]; 4.00 mg/kg i.p.,10.4 days
same,Percent T/C,L-1210 Lymphoid leukemia [4]; 4.00 mg/kg i.p.,99%
same,Median survival time (MST),L-1210 Lymphoid leukemia [4]; 8.00 mg/kg i.p.,12.4 days
same,Percent T/C,L-1210 Lymphoid leukemia [4]; 8.00 mg/kg i.p.,118%
same,Median survival time (MST),L-1210 Lymphoid leukemia [4]; 16.00 mg/kg i.p.,11.8 days
same,Percent T/C,L-1210 Lymphoid leukemia [4]; 16.00 mg/kg i.p.,112%
same,Median survival time (MST),L-1210 Lymphoid leukemia [4]; 32.00 mg/kg i.p.,8.0 days
same,Median survival time (MST),L-1210 Lymphoid leukemia [5]; 5.00 mg/kg i.p.,9.0 days
same,Percent T/C,L-1210 Lymphoid leukemia [5]; 5.00 mg/kg i.p.,105%
same,Median survival time (MST),L-1210 Lymphoid leukemia [5]; 7.00 mg/kg i.p.,9.8 days
same,Percent T/C,L-1210 Lymphoid leukemia [5]; 7.00 mg/kg i.p.,110%
same,Median survival time (MST),L-1210 Lymphoid leukemia [5]; 10.00 mg/kg i.p.,10.7 days
same,Percent T/C,L-1210 Lymphoid leukemia [5]; 10.00 mg/kg i.p.,125%
same,Median survival time (MST),L-1210 Lymphoid leukemia [5]; 16.00 mg/kg i.p.,12.3 days
same,Percent T/C,L-1210 Lymphoid leukemia [5]; 16.00 mg/kg i.p.,144%
same,Median survival time (MST),L-1210 Lymphoid leukemia [5]; 24.00 mg/kg i.p.,31.3 days
same,Percent T/C,L-1210 Lymphoid leukemia [5]; 24.00 mg/kg i.p.,132%
